Structures can show the parent of a compound that is named as a salt. Where two headings read alike, the source gives them in different places.

The test concerns tactile allodynia in the rat Chung model. The test can be described thus: Chung model: reversal of tactile allodynia (von Frey hairs) after spinal nerve ligation. The note with it: Rattus norvegicus, ip, read-out: Peak % Pain reversal: time post dose; for inhibition in vivo at 0.3 mg/kg: 300 μg/kg IP. Format: in vivo. The source says: An art-accepted model or assay for measuring an analgesic effect of a compound in chronic pain (in particular peripheral neuropathy) is the model known as Kim and Chung 1992, Pain […], pp 355-363 (Chung model). This model involves the surgical ligation of the L5 (and optionally the L6) spinal nerves on one side in experimental animals. Rats recovering from the surgery gain weight and display a level of general activity similar to that of normal rats. However, these rats develop abnormalities of the foot, wherein the hindpaw is moderately everted and the toes are held together. More importantly, the hindpaw on the side affected by the surgery appears to become sensitive to low-threshold mechanical stimuli and will perceive pain instead of the faint sensation of touch. This sensitivity to normally non-painful touch, called “tactile allodynia”, develops within the first week after surgery and lasts for at least two months. The allodynia response includes lifting the affected hindpaw to escape from the stimulus, licking the paw and holding it in the air for many seconds. None of these responses is normally seen in the control group.
To produce the tactile allodynia, rats are anesthetized before surgery. The surgical site is shaved and prepared either with betadine or Novacaine. Incision is made from the thoracic vertebra X111 down toward the sacrum. Muscle tissue is separated from the spinal vertebra (left side) at the L4-S2 levels. The L6 vertebra is located and the transverse process is carefully removed with a small rongeur to expose the L4-L6 spinal nerves. The L5 and L6 spinal nerves are isolated and tightly ligated with 6-0 silk thread. The same procedure is done on the right side as a control, except no ligation of the spinal nerves is performed.
After a complete hemostasis is confirmed, the wounds are sutured. A small amount of antibiotic ointment is applied to the incised area, and the rat is transferred to the recovery plastic cage under a regulated heat-temperature lamp.
On the day of the experiment, at least seven days after the surgery, typically six rats per test group are administered the test drugs by intraperitoneal (i.p.) injection or oral gavage (p.o.). For i.p. administration, the compounds are formulated in H2O and given in a volume of 1 ml/kg body weight by injecting into the intraperitoneal cavity. For p.o. administration, the compounds are formulated in H2O and given in a volume of 1 ml/kg body weight using an 18-gauge, 3 inch gavage needle that is slowly inserted through the esophagus into the stomach.
Tactile allodynia is assessed via von Frey hairs, which are a series of fine hairs with incremental differences in stiffness. Rats are placed in a plastic cage with a wire mesh bottom and allowed to acclimate for approximately 30 minutes. To establish the pre-drug baseline, the von Frey hairs are applied perpendicularly through the mesh to the mid-plantar region of the rats' hindpaw with sufficient force to cause slight buckling and held for 6-8 seconds. The applied force has been calculated to range from 0.41 to 15.1 grams. If the paw is sharply withdrawn, it is considered a positive response. A normal animal will not respond to stimuli in this range, but a surgically ligated paw will be withdrawn in response to a 1-2 gram hair. The 50% paw withdrawal threshold is determined using the method of Dixon, W. J., Ann. Rev. Pharmacol. Toxicol. 20:441-462 (1980) hereby incorporated by reference. Tactile allodynia is measured prior to and 15, 30, and 60 minutes after drug administration. The post-drug threshold is compared to the pre-drug threshold and the percent reversal of tactile sensitivity is calculated based on a normal threshold of 15.1 grams.
Table 1 below indicates the degree of pain reversal obtained in the Chung model with exemplary compounds of the invention. […]

Setting [1] is: 0.5 h, peak at 30 min post dose.

On to `Cn1ccnc1[C@H](O)[C@@H](N)C(=O)N1CCCC1` (racemic) [Compound 254, (±)-threo-2-Amino-3-hydroxy-3-(1-methyl-1H-imidazol-2-yl)-1-(pyrrolidin-1-yl)propan-1-one dihydrochloride], for which, where the note is “1 h, peak at 60 min post dose”, the inhibition in vivo at 0.3 mg/kg was 62%.

Take `O=C([C@H](NCc1cccc(I)c1)[C@@H](O)c1ccncc1)N1CCCC1` [Compound 229, (2R,3S)-2-(3-iodobenzylamino)-3-hydroxy-3-(pyridin-4-yl)-1-(pyrrolidin-1-yl)-propan-1-one dihydrochloride]: the inhibition in vivo at 0.3 mg/kg (1 h, peak at 60 min post dose) worked out at 53%.

As to `N[C@@H](C(=O)N1CC=CC1)[C@@H](O)c1ccnc(Cl)c1` (racemic) [Compound 34, DL-threo-2-Amino-3-(2-chloropyridin-4-yl)-3-hydroxy-1-(2H-pyrrol-1 (5H)-yl)propan-1-one dihydrochloride], the inhibition in vivo at 0.3 mg/kg (1 h, peak at 60 min post dose) was determined as 62%.

Consider `O=C(N[C@@H](C(=O)N1CCCC1)[C@@H](O)c1ccncc1)c1ccccc1` (racemic) [Compound 55, N-(DL-threo-1-Hydroxy-3-oxo-1-(pyridin-4-yl)-3-(pyrrolidin-1-yl)propan-2-yl)benzamide hydrochloride], for which the inhibition in vivo at 0.3 mg/kg (1 h, peak at 60 min post dose) was found to be 58%.

For the compound `N[C@@H](C(=O)N1CCCC1)[C@@H](O)c1ccnc(Cl)c1` (racemic) [Compound 41, DL-threo-2-Amino-3-(2-chloropyridin-4-yl)-3-hydroxy-1-(pyrrolidin-1-yl)propan-1-one dihydrochloride], the inhibition in vivo at 0.3 mg/kg (1 h, peak at 60 min post dose) is 70%.

On to `NC(C(=O)N1CCCC1)C(O)c1cccnc1` (single isomer, unassigned; (-)) [Compound 207, (−)-threo-2-Amino-3-hydroxy-3-(pyridin-3-yl)-1-(pyrrolidin-1-yl)propan-1-one dihydrochloride], for which the inhibition in vivo at 0.3 mg/kg (1 h, peak at 60 min post dose) worked out at 96%.

As for `N[C@H](C(=O)N1CCCC1)[C@H](O)c1ccncc1` [Compound 204, (+)-(2S,3R)-2-Amino-3-hydroxy-3-(pyridin-4-yl)-1-(pyrrolidin-1-yl)propan-1-one dihydrochloride], the inhibition in vivo at 0.3 mg/kg (1 h, peak at 60 min post dose) stood at 50%.

For `O=C([C@H](NCc1ccccc1I)[C@@H](O)c1ccncc1)N1CCCC1` (racemic) [Compound 226, (±)-threo-2-(2-iodobenzylamino)-3-hydroxy-3-(pyridin-4-yl)-1-(pyrrolidin-1-yl)-propan-1-one dihydrochloride], the inhibition in vivo at 0.3 mg/kg (1 h, peak at 60 min post dose) was 95%.

As to `NC(C(=O)N1CCCC1)C(O)c1ccsc1` (single isomer, unassigned; (+)) [Compound 205, (+)-threo-2-Amino-3-hydroxy-1-(pyrrolidin-1-yl)-3-(thiophen-3-yl)propan-1-one hydrochloride], the inhibition in vivo at 0.3 mg/kg under setting [1] turned out to be 62%.

As to `N[C@@H](C(=O)N1CCCC1)[C@H](O)c1ccncc1` (racemic) [Compound 219, (±)-erythro-2-amino-3-hydroxy-3-(pyridin-4-yl)-1-(pyrrolidin-1-yl)propan-1-one dihydrochloride], under “1 h, 30 μg/kg IP, peak at 60 min post dose”, the inhibition in vivo at 0.03 mg/kg was determined as 82%.

As to `CN[C@@H](C(=O)N1CCCC1)[C@@H](O)c1ccncc1` (racemic) [Compound 61, DL-threo-3-Hydroxy-2-(methylamino)-3-(pyridin-4-yl)-1-(pyrrolidin-1-yl)propan-1-one dihydrochloride], the inhibition in vivo at 0.3 mg/kg (1 h, peak at 60 min post dose) stood at 64%.

For `O=C([C@H](NCc1cccc(I)c1)[C@@H](O)c1ccncc1)N1CCCC1` (racemic) [Compound 227, (±)-threo-2-(3-iodobenzylamino)-3-hydroxy-3-(pyridin-4-yl)-1-(pyrrolidin-1-yl)-propan-1-one dihydrochloride], the inhibition in vivo at 0.3 mg/kg under setting [1] is 95%.

On to `N[C@@H](C(=O)N1CCCC1)[C@@H](O)c1cccs1` (racemic) [Compound 24, DL-threo-2-Amino-3-hydroxy-1-(pyrrolidin-1-yl)-3-(thiophen-2-yl)propan-1-one hydrochloride], for which the inhibition in vivo at 0.3 mg/kg (1 h, peak at 60 min post dose) turned out to be 60%.

(Values after US20130202653A1, “3-ARYL-3-HYDROXY-2-AMINO-PROPIONIC ACID AMIDES, 3-HETEROARYL-3-HYDROXY-2-AMINOPROPIONIC ACID AMIDES AND RELATED COMPOUNDS HAVING ANALGESIC AND/OR IMMUNO STIMULANT ACTIVITY” (Allergan, Inc., priority 2005, published 2013).)
